Assays:
Assay type in all cases: functional, cell-based
SK-MES-1 = test: cells; conditions: Homo sapiens
Description: SANGER: Inhibition of human SK-MES-1 cell growth in a cell viability assay.

NCI-H810 = test: cells; conditions: Homo sapiens
Description: SANGER: Inhibition of human NCI-H810 cell growth in a cell viability assay.

NCI-H28 = test: cells; conditions: Homo sapiens
Description: SANGER: Inhibition of human NCI-H28 cell growth in a cell viability assay.

SW1573 = test: cells; conditions: Homo sapiens
Description: SANGER: Inhibition of human SW1573 cell growth in a cell viability assay.

SCC-25 = test: cells; conditions: Homo sapiens
Description: SANGER: Inhibition of human SCC-25 cell growth in a cell viability assay.

UACC-62 = test: cells; conditions: Homo sapiens
Description: SANGER: Inhibition of human UACC-62 cell growth in a cell viability assay.

KOSC-2 = test: cells; conditions: Homo sapiens
Description: SANGER: Inhibition of human KOSC-2 cell growth in a cell viability assay.

RMG-I = test: cells; conditions: Homo sapiens
Description: SANGER: Inhibition of human RMG-I cell growth in a cell viability assay.

SN12C = test: cells; conditions: Homo sapiens
Description: SANGER: Inhibition of human SN12C cell growth in a cell viability assay.

CAMA-1 = test: cells; conditions: Homo sapiens
Description: SANGER: Inhibition of human CAMA-1 cell growth in a cell viability assay.

CAL-62 = test: cells; conditions: Homo sapiens
Description: SANGER: Inhibition of human CAL-62 cell growth in a cell viability assay.

NCI-H2087 = test: cells; conditions: Homo sapiens
Description: SANGER: Inhibition of human NCI-H2087 cell growth in a cell viability assay.

OAW-28 = test: cells; conditions: Homo sapiens
Description: SANGER: Inhibition of human OAW-28 cell growth in a cell viability assay.

S-117 = test: cells; conditions: Homo sapiens
Description: SANGER: Inhibition of human S-117 cell growth in a cell viability assay.

OAW-42 = test: cells; conditions: Homo sapiens
Description: SANGER: Inhibition of human OAW-42 cell growth in a cell viability assay.

RPMI-7951 = test: cells; conditions: Homo sapiens
Description: SANGER: Inhibition of human RPMI-7951 cell growth in a cell viability assay.

MIA PaCa-2 = test: cells; conditions: Homo sapiens
Description: SANGER: Inhibition of human MIA-PaCa-2 cell growth in a cell viability assay.

HuP-T3 = test: cells; conditions: Homo sapiens
Description: SANGER: Inhibition of human HuP-T3 cell growth in a cell viability assay.

T98G = test: cells; conditions: Homo sapiens
Description: SANGER: Inhibition of human T98G cell growth in a cell viability assay.

COLO-679 = test: cells; conditions: Homo sapiens
Description: SANGER: Inhibition of human COLO-679 cell growth in a cell viability assay.

AU565 = test: cells; conditions: Homo sapiens
Description: SANGER: Inhibition of human AU565 cell growth in a cell viability assay.

D-392MG = test: cells; conditions: Homo sapiens
NCI-N87 = test: cells; conditions: Homo sapiens
Description: SANGER: Inhibition of human NCI-N87 cell growth in a cell viability assay.

A2058 = test: cells; conditions: Homo sapiens
Description: SANGER: Inhibition of human A2058 cell growth in a cell viability assay.

KP-4 = test: cells; conditions: Homo sapiens
Description: SANGER: Inhibition of human KP-4 cell growth in a cell viability assay.

AGS = test: cells; conditions: Homo sapiens
Description: SANGER: Inhibition of human AGS cell growth in a cell viability assay.

NCI-H661 = test: cells; conditions: Homo sapiens
Description: SANGER: Inhibition of human NCI-H661 cell growth in a cell viability assay.

CAL-51 = test: cells; conditions: Homo sapiens
Description: SANGER: Inhibition of human CAL-51 cell growth in a cell viability assay.

PANC-03-27 = test: cells; conditions: Homo sapiens
Description: SANGER: Inhibition of human PANC-03-27 cell growth in a cell viability assay.

NCI-H2405 = test: cells; conditions: Homo sapiens
Description: SANGER: Inhibition of human NCI-H2405 cell growth in a cell viability assay.

NCI-H650 = test: cells; conditions: Homo sapiens
Description: SANGER: Inhibition of human NCI-H650 cell growth in a cell viability assay.

SW13 = test: cells; conditions: Homo sapiens
Description: SANGER: Inhibition of human SW13 cell growth in a cell viability assay.

HCC70 = test: cells; conditions: Homo sapiens
Description: SANGER: Inhibition of human HCC70 cell growth in a cell viability assay.

G-401 = test: cells; conditions: Homo sapiens
Description: SANGER: Inhibition of human G-401 cell growth in a cell viability assay.

SKG-IIIa = test: cells; conditions: Homo sapiens
Description: SANGER: Inhibition of human SKG-IIIa cell growth in a cell viability assay.

HCC2157 = test: cells; conditions: Homo sapiens
Description: SANGER: Inhibition of human HCC2157 cell growth in a cell viability assay.

EFO-27 = test: cells; conditions: Homo sapiens
Description: SANGER: Inhibition of human EFO-27 cell growth in a cell viability assay.

RVH-421 = test: cells; conditions: Homo sapiens
Description: SANGER: Inhibition of human RVH-421 cell growth in a cell viability assay.

WM-115 = test: cells; conditions: Homo sapiens
Description: SANGER: Inhibition of human WM-115 cell growth in a cell viability assay.

HCC1954 = test: cells; conditions: Homo sapiens
Description: SANGER: Inhibition of human HCC1954 cell growth in a cell viability assay.

BFTC-909 = test: cells; conditions: Homo sapiens
Description: SANGER: Inhibition of human BFTC-909 cell growth in a cell viability assay.

CAL-85-1 = test: cells; conditions: Homo sapiens
Description: SANGER: Inhibition of human CAL-85-1 cell growth in a cell viability assay.

P12-Ichikawa = test: cells; conditions: Homo sapiens
NB17 = test: cells; conditions: Homo sapiens
Description: SANGER: Inhibition of human NB17 cell growth in a cell viability assay.

NCI-H630 = test: cells; conditions: Homo sapiens
Description: SANGER: Inhibition of human NCI-H630 cell growth in a cell viability assay.

MDA-MB-361 = test: cells; conditions: Homo sapiens
A204 = test: cells; conditions: Homo sapiens
Description: SANGER: Inhibition of human A204 cell growth in a cell viability assay.

DK-MG = test: cells; conditions: Homo sapiens
Description: SANGER: Inhibition of human DK-MG cell growth in a cell viability assay.

HMV-2 cell line = test: cells; conditions: Homo sapiens
Description: SANGER: Inhibition of human HMV-II cell growth in a cell viability assay.

CA46 = test: cells; conditions: Homo sapiens
Description: SANGER: Inhibition of human CA46 cell growth in a cell viability assay.

SIMA = test: cells; conditions: Homo sapiens
Description: SANGER: Inhibition of human SIMA cell growth in a cell viability assay.

SU-DHL-1 = test: SANGER: Inhibition of human SU-DHL-1 cell growth in a cell viability assay.
IMR-5 = test: cells; conditions: Homo sapiens
Description: SANGER: Inhibition of human IMR-5 cell growth in a cell viability assay.

MHH-CALL-2 = test: cells; conditions: Homo sapiens
Description: SANGER: Inhibition of human MHH-CALL-2 cell growth in a cell viability assay.

LC4-1 = test: cells; conditions: Homo sapiens
Description: SANGER: Inhibition of human LC4-1 cell growth in a cell viability assay.

Kasumi 1 = test: cells; conditions: Homo sapiens
Description: SANGER: Inhibition of human KASUMI-1 cell growth in a cell viability assay.

RL = test: cells; conditions: Homo sapiens
Description: SANGER: Inhibition of human RL cell growth in a cell viability assay.

TE-15 = test: cells; conditions: Homo sapiens
Description: SANGER: Inhibition of human TE-15 cell growth in a cell viability assay.

MC-CAR = test: cells; conditions: Homo sapiens
Description: SANGER: Inhibition of human MC-CAR cell growth in a cell viability assay.

KARPAS-422 = test: cells; conditions: Homo sapiens
Description: SANGER: Inhibition of human KARPAS-422 cell growth in a cell viability assay.

CMK = test: cells; conditions: Homo sapiens
Description: SANGER: Inhibition of human CMK cell growth in a cell viability assay.

NCI-H1882 = test: cells; conditions: Homo sapiens
Description: SANGER: Inhibition of human NCI-H1882 cell growth in a cell viability assay.

MDA-MB-134-VI = test: cells; conditions: Homo sapiens
Description: SANGER: Inhibition of human MDA-MB-134-VI cell growth in a cell viability assay.

NCI-H1436 = test: cells; conditions: Homo sapiens
Description: SANGER: Inhibition of human NCI-H1436 cell growth in a cell viability assay.

## Cn1c(=O)n(-c2ccc(C(C)(C)C#N)cc2)c2c3cc(-c4cnc5ccccc5c4)ccc3ncc21 [DACTOLISIB]
SK-MES-1
  IC50: 53.3 nM
NCI-H810
  IC50: 278 nM
NCI-H28
  IC50: 34.4 nM
SW1573
  IC50: 109 nM
SCC-25
  IC50: 89.8 nM
UACC-62
  IC50: 168 nM
KOSC-2
  IC50: 70 nM
RMG-I
  IC50: 468 nM
SN12C
  IC50: 90.6 nM
CAMA-1
  IC50: 9.8 nM
CAL-62
  IC50: 36.9 nM
NCI-H2087
  IC50: 235 nM
OAW-28
  IC50: > 2000 nM
S-117
  IC50: 76.3 nM
OAW-42
  IC50: 73.4 nM
RPMI-7951
  IC50: 19.3 nM
MIA PaCa-2
  IC50: 84.5 nM
HuP-T3
  IC50: 1120 nM
T98G
  IC50: 29.9 nM
COLO-679
  IC50: 122 nM
AU565
  IC50: 213 nM
D-392MG
  IC50: 108 nM
NCI-N87
  IC50: 111 nM
A2058
  IC50: 33.2 nM
KP-4
  IC50: 7 nM
AGS
  IC50: 48.8 nM
NCI-H661
  IC50: 151 nM
CAL-51
  IC50: 23.9 nM
PANC-03-27
  IC50: 76.3 nM
NCI-H2405
  IC50: 54.9 nM
NCI-H650
  IC50: 94.1 nM
SW13
  IC50: 66.5 nM
HCC70
  IC50: 409 nM
G-401
  IC50: 40.8 nM
SKG-IIIa
  IC50: 129 nM
HCC2157
  IC50: 128 nM
EFO-27
  IC50: 24.3 nM
RVH-421
  IC50: 53.7 nM
WM-115
  IC50: 68.1 nM
HCC1954
  IC50: 513 nM
BFTC-909
  IC50: 3.71 nM
CAL-85-1
  IC50: 92.5 nM
P12-Ichikawa
  IC50: 15.1 nM
NB17
  IC50: 722 nM
NCI-H630
  IC50: 913 nM
MDA-MB-361
  IC50: 61 nM
A204
  IC50: 28.5 nM
DK-MG
  IC50: 180 nM

## O=c1cc(N2CCOCC2)oc2c(-c3cccc4c3sc3ccccc34)cccc12
SK-MES-1
  IC50: > 2000 nM
NCI-H810
  IC50: > 2000 nM
NCI-H28
  IC50: > 2000 nM
SW1573
  IC50: > 2000 nM
SCC-25
  IC50: > 2000 nM
UACC-62
  IC50: > 2000 nM
KOSC-2
  IC50: > 2000 nM
RMG-I
  IC50: > 2000 nM
SN12C
  IC50: > 2000 nM
CAMA-1
  IC50: > 2000 nM
CAL-62
  IC50: > 2000 nM
NCI-H2087
  IC50: > 2000 nM
OAW-28
  IC50: > 2000 nM
S-117
  IC50: > 2000 nM
OAW-42
  IC50: > 2000 nM
RPMI-7951
  IC50: > 2000 nM
MIA PaCa-2
  IC50: > 2000 nM
HuP-T3
  IC50: > 2000 nM
T98G
  IC50: > 2000 nM
COLO-679
  IC50: > 2000 nM
AU565
  IC50: > 2000 nM
D-392MG
  IC50: > 2000 nM
NCI-N87
  IC50: > 2000 nM
A2058
  IC50: > 2000 nM
KP-4
  IC50: > 2000 nM
AGS
  IC50: > 2000 nM
NCI-H661
  IC50: > 2000 nM
CAL-51
  IC50: > 2000 nM
PANC-03-27
  IC50: > 2000 nM
NCI-H2405
  IC50: > 2000 nM
NCI-H650
  IC50: > 2000 nM
SW13
  IC50: > 2000 nM
HCC70
  IC50: > 2000 nM
G-401
  IC50: > 2000 nM
SKG-IIIa
  IC50: > 2000 nM
HMV-2 cell line
  IC50: > 2000 nM
HCC2157
  IC50: > 2000 nM
EFO-27
  IC50: > 2000 nM
RVH-421
  IC50: > 2000 nM
WM-115
  IC50: > 2000 nM
HCC1954
  IC50: > 2000 nM
BFTC-909
  IC50: > 2000 nM
CAL-85-1
  IC50: > 2000 nM
P12-Ichikawa
  IC50: > 2000 nM
NB17
  IC50: > 2000 nM
NCI-H630
  IC50: > 2000 nM
MDA-MB-361
  IC50: > 2000 nM
A204
  IC50: > 2000 nM
DK-MG
  IC50: > 2000 nM

## Cc1n[nH]c2ccc(-c3cncc(OC[C@@H](N)Cc4c[nH]c5ccccc45)c3)cc12 [A-443654]
CA46
  IC50: > 1020 nM
SIMA
  IC50: > 1020 nM
SU-DHL-1
  IC50: 797 nM
IMR-5
  IC50: 600 nM
MHH-CALL-2
  IC50: > 1020 nM
LC4-1
  IC50: 217 nM
Kasumi 1
  IC50: > 1020 nM
RL
  IC50: > 1020 nM
TE-15
  IC50: 59.1 nM
MC-CAR
  IC50: > 1020 nM
KARPAS-422
  IC50: 294 nM
HCC2157
  IC50: 561 nM
CMK
  IC50: 275 nM
NCI-H1882
  IC50: 428 nM
NB17
  IC50: 112 nM
MDA-MB-134-VI
  IC50: 489 nM
NCI-H1436
  IC50: 477 nM

## CCCS(=O)(=O)Nc1ccc(F)c(C(=O)c2c[nH]c3ncc(Cl)cc23)c1F [PLX-4720]
SK-MES-1
  IC50: > 10000 nM
NCI-H810
  IC50: > 10000 nM
NCI-H28
  IC50: > 10000 nM
SW1573
  IC50: > 10000 nM
SCC-25
  IC50: > 10000 nM
UACC-62
  IC50: > 10000 nM
KOSC-2
  IC50: > 10000 nM
RMG-I
  IC50: > 10000 nM
SN12C
  IC50: > 10000 nM
CAMA-1
  IC50: > 10000 nM
CAL-62
  IC50: > 10000 nM
NCI-H2087
  IC50: > 10000 nM
OAW-28
  IC50: > 10000 nM
S-117
  IC50: > 10000 nM
OAW-42
  IC50: > 10000 nM
RPMI-7951
  IC50: 5800 nM
MIA PaCa-2
  IC50: > 10000 nM
HuP-T3
  IC50: > 10000 nM
T98G
  IC50: > 10000 nM
COLO-679
  IC50: 1100 nM
AU565
  IC50: > 10000 nM
D-392MG
  IC50: > 10000 nM
NCI-N87
  IC50: > 10000 nM
A2058
  IC50: 4720 nM
KP-4
  IC50: 2310 nM
AGS
  IC50: > 10000 nM
NCI-H661
  IC50: > 10000 nM
CAL-51
  IC50: > 10000 nM
PANC-03-27
  IC50: > 10000 nM
NCI-H2405
  IC50: > 10000 nM
NCI-H650
  IC50: > 10000 nM
SW13
  IC50: > 10000 nM
HCC70
  IC50: > 10000 nM
G-401
  IC50: > 10000 nM
SKG-IIIa
  IC50: > 10000 nM
HMV-2 cell line
  IC50: > 10000 nM
HCC2157
  IC50: > 10000 nM
EFO-27
  IC50: > 10000 nM
RVH-421
  IC50: 868 nM
WM-115
  IC50: 887 nM
HCC1954
  IC50: > 10000 nM
BFTC-909
  IC50: > 10000 nM
CAL-85-1
  IC50: > 10000 nM
P12-Ichikawa
  IC50: > 10000 nM
NB17
  IC50: > 10000 nM
NCI-H630
  IC50: > 10000 nM
MDA-MB-361
  IC50: > 10000 nM
A204
  IC50: > 10000 nM
DK-MG
  IC50: > 10000 nM
